Experimental findings from ChEMBL document CHEMBL5500362, “Benzothiazole derivatives as histone deacetylase inhibitors for the treatment of autosomal dominant polycystic kidney disease” (Eur J Med Chem, 2024) are described below.

For data set [1], the system named is HeLa. The following applies: Homo sapiens, dose 100.0 nM, time 15.0 min.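 Further: HDAC inhibition in HeLa cells, read on a microplate reader using an acetylated peptide AMC substrate, expressed relative to control.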
Data set [2] relates to Mus musculus. The data set can be described thus: Inhibition of renal cystogenesis in PKD1 knockout ADPKD C57BL/6 mouse assessed as reduction kidney to body weight ratio index at 1 mg/kg, sc administered once daily for 1 week (19.5 +/-0.5%). It is filed as functional. On the set-up: scale not given: the % may be the effect or the level left. The following applies: time 1 weeks.

Data set [3] concerns MDCK. The data set can be described thus: Inhibition of cystogenesis in PKD1 knockout ADPKD MDCK cells assessed as inhibition of cyst formation at 0.3 to 1 uM. The class given is functional, cell-based. Particulars: Canis lupus familiaris, dose 0.3-1 µM, time 4-10 day, TDE = time-dependent effect.
The test system of data set [4] is Mus musculus. In words: Inhibition of renal cystogenesis in PKD1 knockout ADPKD C57BL/6 mouse assessed as reduction in kidney size at 1 mg/kg, sc administered once daily for 1 week. The following applies: time 1.0 weeks. The class given is functional, organism-based.
Data set [5] concerns MDCK. In words: Upregulation of acetylation of alpha tubulin level in MDCK cells incubated for 24 hrs by Western blot analysis. It is filed as functional, cell-based. Particulars: Canis lupus familiaris, dose 0.3-1 µM. For orientation: Immunoblotting shows a protein as a band on a membrane.
In data set [6] the test system is MDCK. In words: Cytotoxicity against MDCK cells at 0.3 to 1 uM by CCK-8 assay. It is filed as toxicity, cell-based, Canis lupus familiaris. Particulars: dog, dose 0.3-1 µM. In general terms: Formazan colour is commonly taken as a measure of viable cells.
A short description of data set [7]: Cmax in C57BL/6 mouse at 1 mg/kg, sc by LC-MS/MS analysis. The class given is ADME, organism-based. The following applies: in vivo.
The nature of data set [8]: AUC (0 to t) in C57BL/6 mouse at 1 mg/kg, sc by LC-MS/MS analysis. The following applies: in vivo. It is filed as ADME, organism-based.
For data set [9], the system named is Mus musculus. The data set can be described thus: Inhibition of renal cystogenesis in PKD1 knockout ADPKD C57BL/6 mouse assessed as decrease in kidney size at 1 mg/kg, sc administered once daily for 1 week by H and E staining based analysis. It is filed as functional, organism-based. The following applies: time 1.0 weeks.
The nature of data set [10]: AUC (0 to infinity) in C57BL/6 mouse at 1 mg/kg, sc by LC-MS/MS analysis. It is filed as ADME, organism-based. The following applies: in vivo.
Data set [11] concerns Mus musculus. In words: Inhibition of renal cystogenesis in PKD1 knockout ADPKD C57BL/6 mouse assessed as reduction in renal cyst formation at 1 mg/kg, sc administered once daily for 1 week by H and E staining based analysis. It is filed as functional, organism-based. Particulars: time 1.0 weeks.
A short description of data set [12]: Tmax in C57BL/6 mouse at 1 mg/kg, sc by LC-MS/MS analysis. The class given is ADME, organism-based. Particulars: in vivo.
Data set [13] concerns Kidney. The data set can be described thus: Ex vivo inhibition of renal cystogenesis in wild type C57BL/6 mouse kidney assessed as suppression of 8-Br-cAMP-induced cyst development at 1 uM treated for 6 days by inverted microscopic analysis. It is filed as functional, tissue-based. Particulars: time 6.0 day.
Data set [14] is described as follows: Terminal elimination half life in C57BL/6 mouse at 1 mg/kg, sc by LC-MS/MS analysis. It is filed as ADME, organism-based. Particulars: in vivo, read-out: LambdaZ (converted).
Data set [15] is described as follows: Half life in C57BL/6 mouse at 1 mg/kg, sc by LC-MS/MS analysis. The class given is ADME, organism-based. The following applies: in vivo.
The subject of data set [16] is MDCK. The data set can be described thus: Inhibition of colony formation in MDCK cells measured after 8 days by crystal violet staining based analysis. It is filed as functional, cell-based. Particulars: Canis lupus familiaris, dose 0.3-1 µM, time 8.0 day.
In data set [17] the test system is MDCK. In words: Antiproliferative activity against MDCK cells at 0.3 to 1 uM by Hoechst 33342 and EdU staining based analysis. Particulars: Canis lupus familiaris, dose 0.3-1 µM. The class given is functional, cell-based.
Data set [18] relates to Mus musculus. The data set can be described thus: Inhibition of renal cystogenesis in PKD1 knockout ADPKD C57BL/6 mouse assessed as increase in renal parenchyma at 1 mg/kg, sc administered once daily for 1 week by H and E staining based analysis. The class given is functional, organism-based. The following applies: time 1.0 weeks.

Each structure is given as a SMILES string. Calls of active or inactive are those of the source. The calls are words filed in the database; no cut-off is given here.

As a reminder, the inhibition is the share of the control response that was lost under treatment. `O=C(CCCCCCOc1ccc(-c2nc3ccc(F)cc3s2)cc1)NO`: in data set [1], the inhibition was 61.2%. For `Cc1ccccc1C(=O)Nc1ccc(C(=O)N2CCCC(O)c3cc(Cl)ccc32)c(C)c1` (configuration not stated) [TOLVAPTAN], the Activity in [2] amounted to 15.8%. With `O=C(CCCCCCOc1ccc(-c2nc3ccccc3s2)c(Cl)c1)NO`, in data set [1], the inhibition came to 33.2%.

`COc1ccc(-c2nc3cc(Cl)ccc3s2)cc1OCCCCCCC(=O)NO` yielded an inhibition in data set [1] of 37.2%. Still for that read-out and setting: the figure for `O=C(CCCCCCOc1cccc(-c2nc3ccccc3s2)c1Cl)NO` is 62%; for `O=C(CCCCCCOc1ccc(-c2nc3ccccc3s2)c(F)c1)NO` it is 83%; for `COc1cc(-c2nc3ccccc3s2)ccc1OCCCCCCC(=O)NO` it is 74.2%. Take `O=C(CCCCCOc1cccc(-c2nc3ccccc3s2)c1)NO`: the inhibition in [1] was found to be 76.7%. `O=C(CCCCCCOc1ccc(-c2nc3ccccc3s2)cc1Cl)NO` gave an inhibition in [1] of 18.3%. In data set [1], `COc1cc(-c2nc3ccccc3s2)cc(OC)c1OCCCCCCC(=O)NO` came in with an inhibition of 81.7%.

In the case of `O=C(CCCCCCOc1ccc(-c2nc3cc(Cl)ccc3s2)cc1)NO`, the inhibition in [1] was 42.7%. In turn, `O=C(COc1ccc(-c2nc3ccccc3s2)cc1)NO` registered an inhibition in data set [1] of 34.8%. For `O=C(CCCCCOc1ccc(-c2nc3ccccc3s2)cc1)NO`, in [1], the inhibition was found to be 26.8%. In data set [1], `COc1ccc(-c2nc3ccc(C)cc3s2)cc1OCCCCCCC(=O)NO` showed an inhibition of 67.8%.

For the compound `COc1ccc2nc(-c3ccc(OC)c(OCCCCCCC(=O)NO)c3)sc2c1`, the inhibition in data set [1] is 80.3%.

In data set [1], `Cc1ccc2nc(-c3ccc(OCCCCCCC(=O)NO)cc3)sc2c1` returned an inhibition of 52.3%.

For `O=C(CCCCCCOc1cccc(-c2nc3ccccc3s2)c1)NO`, in data set [1], the inhibition worked out at 76.8%.

For the compound `O=C(COc1cccc(-c2nc3ccccc3s2)c1)NO`, the inhibition in [1] was 66.5%. In data set [1], `O=C(CCCCCCOc1ccc(-c2nc3ccccc3s2)cc1F)NO` came in with an inhibition of 46.2%.

In [1], `COc1ccc(-c2nc3ccc(Cl)cc3s2)cc1OCCCCCCC(=O)NO` returned an inhibition of 44.5%. In data set [1], `O=C(CCCCCCOc1cccc(-c2nc3ccccc3s2)c1F)NO` registered an inhibition of 68.7%.

Regarding `O=C(CCCOc1ccc(-c2nc3ccccc3s2)cc1)NO`, in [1], the inhibition was determined as 3.33%.

In turn, `COc1ccc(-c2nc3ccc(F)cc3s2)cc1OCCCCCCC(=O)NO` registered an inhibition in data set [1] of 77.3%.

As for `O=C(CCCCOc1ccc(-c2nc3ccccc3s2)cc1)NO`, the inhibition in data set [1] came out at 56%. In turn, `O=C(CCCCCCOc1ccc(-c2nc3ccc(Cl)cc3s2)cc1)NO` displayed an inhibition in [1] of 21.7%. Turning to `COc1ccc2nc(-c3ccc(OCCCCCCC(=O)NO)cc3)sc2c1`, the inhibition in data set [1] worked out at 51.7%. In data set [1], `O=C(CCCCCCCOc1ccc(-c2nc3ccccc3s2)cc1)NO` showed an inhibition of 9.17%. Still for that read-out and setting: the figure for `O=C(CCCOc1cccc(-c2nc3ccccc3s2)c1)NO` is 41.2%; for `O=C(CCCCCCOc1ccc(-c2nc3ccccc3s2)cc1)NO` it is 84.2%. In [1], `O=C(CCCCOc1cccc(-c2nc3ccccc3s2)c1)NO` gave an inhibition of 45.7%. `O=C(CCCCCCCOc1cccc(-c2nc3ccccc3s2)c1)NO` returned an inhibition in [1] of 65.3%. For `CCOc1cc(-c2nc3ccccc3s2)ccc1OCCCCCCC(=O)NO`, in data set [1], the inhibition was 75%. With `COc1ccc(-c2nc3ccccc3s2)cc1OCCCCCCCC(=O)NO`, the inhibition in data set [1] was 28.2%. Same read-out and setting: the figure for `Cc1cc(-c2nc3ccccc3s2)ccc1OCCCCCCC(=O)NO` is 39.3%. The Cmax is the maximum level reached in the sampled fluid or tissue. The term AUC(0-t) denotes the area under the concentration-time curve up to a stated or last time point. As a reminder, the AUC(0-inf) is total exposure, with the tail of the curve extrapolated. A word on the Tmax: it is the time from dosing to the highest level. A word on the half-life: it is how long it takes for the measured level to halve. Turning to `COc1ccc(-c2nc3ccccc3s2)cc1OCCCCCCC(=O)NO`, the inhibition entry in [3] is “Tde”; in data set [1] it was 88%; in [16], “Dose-Dependent Effect”. Besides, the result in [4], in data set [9], in [11], in [13], in [17] and in data set [18] was Active. Further, the Activity result in [5] was “Dose-Dependent Effect”; in [6], “Non-Toxic”; in [2], 14.2%. Besides, the Cmax in [7] amounted to 572 ng/mL. This compound also had an area under the curve AUC(0-t) in [8] of 597 ng·h/mL. In addition, the AUC(0-inf) in data set [10] came out at 614 ng·h/mL. In addition, the Tmax in data set [12] was found to be 0.25 h. In addition, in [14], the k el is 3.61e-05 s⁻¹. For the same compound, in data set [15], the half-life was 5.75 h.
